Source: patent US20190336496A1, “SELECTIVE BCL-2 INHIBITORS IN COMBINATION WITH AN ANTI-PD-1 OR AN ANTI-PD-L1 ANTIBODY FOR THE TREATMENT OF CANCERS” (AbbVie Inc., priority 2018, published 2019)
“And” between values parts separate entries of the source, which are not always exact repeats. Equal values may be shown once.

Tests used:
[1] = tested on: MC38 tumors; assay: MC38 model in immune deficient SCID mice; type: in vivo, mouse
Experimental: All experiments were conducted in compliance with the National Institutes of Health Guide for Care and Use of Laboratory Animals guidelines in a facility accredited by the Association for the Assessment and Accreditation of Laboratory Animal Care (AAALAC). BALB/c, C57BL/6, CB6F1 (C57BL/6 bred with BALB/c) and SCID mice were obtained from Charles River (Wilmington, Mass.). SCID mice have severe combined immune deficiency (SCID) and are characterized by an absence of functional T- and B-cells.
To further test the direct effects of venetoclax on the immune cells, SCID mice were transplanted with MC38 cells and treated with vehicle or anti-PD-1/PD-L1/venetoclax as single agent and in combinations (FIGS. 12E and 12F).

[2] = tested on: mouse lymphocytes; assay: In vivo sensitivity of lymphocytes (flow cytometry)
Experimental: FIG. 2: In vivo sensitivity of lymphocytes to Compound (I). […] Descriptions of each sub-section are as follows: (A) In vivo sensitivity of lymphocytes following one week of treatment with Compound (I). Naïve CB6F1 mice were treated daily with Compound (I) (50/mg/kg) for one week. Lymph nodes were collected, and immune cells were quantified by flow cytometry; (B) In vivo sensitivity of splenocytes following one week of treatment with Compound (I). Naïve C57BL/6 mice were treated daily with Compound (I) (50/mg/kg) for one week. Spleens were collected and immune cells were quantified by flow cytometry. Mouse splenocytes, including B-cells, CD8+ T-cells, and CD4+ T-cells, were sensitive to in vivo treatment with Compound (I), as described in Example 1; (C) In vivo sensitivity of T-cell subsets in splenocytes following one week of treatment with Compound (I). CD4+ naïve T-cells (TN) and CD8+ central memory T-cells in the spleen from C57BL/6 mice were slightly sensitive to in vivo Compound (I) treatment while the proportion of CD4+ and CD8+ effector memory T-cells (TEM) was increasing; and (D) In vivo sensitivity of T-cell subsets in the blood following one week of treatment with Compound (I). The proportion of CD4+ and CD8+ effector memory T cells (TEM) increased in the blood from C57BL/6 mice following in vivo Compound (I) treatment.
(§1) Cancer Immunol Res. 5; 29-41 (2017)). Any reduction in checkpoint inhibitor-mediated tumor growth inhibition or response rates caused by the addition of venetoclax would indicate potential antagonism. The panel was composed of syngeneic models of solid tumors: CT26, MC38 (both colorectal carcinoma) and EMT6 (breast cancer). […] Likewise, only modest anti-tumor activity could be observed in these models with venetoclax alone, dosed daily at 50 mg/kg for 14 days (FIG. 3, FIG. 6, FIGS. 12A, 12B, 12C, and 12D). […] Rather, it enhanced their efficacy in certain cases.

[3] = tested on: NCI-H211; assay: Venetoclax cell killing (CellTiter-Glo); type: cell-based, human
Experimental: Solid tumor cell lines were obtained from American Type Culture Collection (ATCC, Manassas, Va.) or the National Cancer Institute (NCI) and cultured in humidified incubators at 37° C. (5% CO2) in appropriate media (specified by supplier) supplemented with 10% fetal bovine serum (FBS) or 10% human serum (HS). 24 hours after plating into 96-well or 384-well tissue culture plates, venetoclax was added to cells at various concentrations (typically 0.010 to 10 μM in half-log increments) to perform concentration-response assessments of cell killing. After 1 to 5 days of culture in the presence of venetoclax, cell viability was assessed using CellTiter-Glo® reagent (Promega). IC50 values were determined by non-linear regression analysis of the concentration response data (Table 5 and Table 6).

[4] = tested on: T-cell subsets in peripheral blood; assay: T-cell subsets in peripheral blood of healthy volunteers; type: in vivo, human; parameters: key: ↑: increase; ↓: decrease; ≈: no change; details: one dose of 100 mg (or dose-equivalent); one day pre- vs seven days post-treatment; per subject
Experimental: In a clinical study sponsored by AbbVie Inc. healthy volunteers were administered with one dose of 100 mg of Compound (I) (venetoclax) or a dose-equivalent of Compound (IV) in a solid formulation to deliver 100 mg of Compound (I). T-cell subsets in peripheral blood were measured one day pre- and seven days post-treatment by flow cytometry. In most of the tested subjects the fraction of CD4+ and CD8+ T effector memory and terminally differentiated effector memory cells increased, the proportion of CD8+ naïve T-cells has remained unchanged or decreased, and the proportion of CD4+ and CD8+ central memory T cells has decreased following treatment with either agent (Table 7 and FIG. 13).

[5] = tested on: MC38 tumors; assay: MC38 colon carcinoma syngeneic model, immune competent C57BL/6 mice; type: in vivo, mouse; details: MC38 in C57BL/6 mice; venetoclax 50 mg/kg/day orally 14 days; antibody 10 mg/kg IP every 4 days, 3 times; day 25
Experimental: MC38, mouse colon carcinoma cell line was obtained from National Cancer Institute (NCI).
Compound (I),venetoclax, was formulated in 10% ethanol+30% PEG 400+60% Phosal® 50PG. Venetoclax was administered orally once a day for 14 days at 50 mg/kg/day.
1×10^5 CT26, EMT6 or MC38 cells were subcutaneously injected with Matrigel into the flanks of BALB/c, CB6F1 or C57BL/6 mice, respectively. Seven days later, mice were randomized to treatment groups of vehicle, venetoclax, anti-PD-1/PD-L1 or the combination of venetoclax and anti-PD-1/PD-L1. Tumor volume was determined via measurements of the length (L) and width (W) of the tumor with electronic calipers and the volume was calculated according to the following equation: V=L×W2/2 using Study Director Version 2.1.11 (Studylog Systems Inc., South San Francisco). Complete response (CR) was defined as reduction in tumor volume to ≤25 mm^3 over at least 3 successive measurements.

[6] = tested on: CT26, MC38 and EMT6 cells; assay: In vitro sensitivity of CT26, EMT6 and MC38 cells (FIG. 1); type: cell-based, mouse; details: increasing doses, CellTiter-Glo after 72 hours
Experimental: FIG. 1: In vitro sensitivity of CT26, EMT6 and MC38 cells to Compound (I). […] CT26, MC38 and EMT6 cells were incubated with increasing doses of Compound (I) and viability was measured using CellTiter®-Glo (Promega) after 72 hours as described in Example 1.
as §1

[7] = tested on: CMV-positive human PBMCs; assay: CMV recall assay in the presence of anti-PD-1 antibody; type: cell-based; details: 1 μg/mL CMV antigen, day 4
Experimental: The cytomegalovirus (CMV) recall assay was used assess the functional effects of venetoclax on antigen-experienced immune cells and to evaluate the effect of venetoclax on anti-PD1 immune response. This assay used cytomegalovirus (CMV) antigen to stimulate pre-existing memory T-cells in CMV-positive human PBMCs. Human CMV-positive PBMCs (Cat.No:1001; Lot. No. 3634JY17) and CMV antigen (Cat. No. 1004) were purchased from Astarte Biologics. 2×10^5 CMV-positive PBMCs were stimulated with 1 μg/mL of CMV antigen with or without inhibitors +/−anti-PD-1 (nivolumab) in Roswell Park Memorial Institute (RPMI) media supplemented with 10% fetal bovine serum (FBS) and 1% antibiotics. On day 4, secreted IFNγ was measured by ELISA and the live cells were analyzed using a live dead stain, Zombie Green™ (BioLegend®) using LSRFortessa™ X-20 instrument (BD Biosciences). Venetoclax reduced the percentage of live cells compared to DMSO as single agent or in combination with nivolumab (FIG. 10D).

With CC1(C)CCC(CN2CCN(c3ccc(C(=O)NS(=O)(=O)c4ccc(NCC5CCOCC5)c([N+](=O)[O-])c4)c(Oc4cnc5[nH]ccc5c4)c3)CC2)=C(c2ccc(Cl)cc2)C1 [Compound (I), venetoclax] the “anti-tumor efficacy / tumor growth in SCID mice” value [1] was “did not show anti-tumor efficacy”, the “sensitivity of lymphocytes in lymph node, spleen and blood (B-cells, CD8+ T-cells, CD4+ T-cells)” value ([2]; daily 50/mg/kg for one week, flow cytometry) was “sensitive” and the “murine T-cell populations in vivo” value ([2]; mice treated daily at 50 mg/kg for one week) was “clear reductions”. For the same compound, the “proportion of memory cells, specifically effector memory cells” value ([2]; spleen and blood of C57BL/6 mice, one week of treatment) was “increase”, the IC50 ([3]; Homo sapiens, NCI-H211, 48 h, Lung, 10% HS, 2 days) was 30 nM and the “sensitivity at clinically relevant concentrations” value ([3]; only line of Tables 5 and 6) was “showed sensitivity”. The “CD4+ T-Cells TCM” value [4] was “↓”, the “CD4+ T-Cells TEM” value [4] was “↑” and the “CD4+ T-Cells TEMRA” value [4] was “↑ and ≈ (2×)”. The “CD4+ T-Cells TN” value [4] was “≈ and ↑ and ↓”, the “CD8+ T-Cells TCM” value [4] was “↓” and the “CD8+ T-Cells TEM” value [4] was “↑”. The “CD8+ T-Cells TEMRA” value [4] was “↑ (2×) and ≈”, the “CD8+ T-Cells TN” value [4] was “↓ and ≈ (2×)” and the “tumor growth inhibition (TGI)” value [5] was 41%. For the same compound, the “in vitro sensitivity (viability)” value [6] was “resistant”, the “in vitro sensitivity (viability)” value ([6]; listed as venetoclax) was “None of these tumor cell lines exhibited sensitivity” and the “IFNγ secretion from antigen specific CMV+ T cells (ELISA)” value [7] was “remained comparable to DMSO control”. For the same compound, the “percentage of live cells compared to DMSO” value [7] was “reduced”.
